Reference: patent US20080108645A1, “Dihydrotetrabenazines And Pharmaceutical Compositions Containing Them” (CAMBRIDGE LABORATORIES, (IRELAND), LTD., priority 2004, published 2008)

Columns and labels:
Adrenergic α2A Receptor = molecular target: T1, Adrenergic α2A Receptor (Homo sapiens, UniProt P08913); test: Adrenergic α2A receptor radioligand binding; conditions: 10 μM; 1 nM [3H] MK-912
T1 construct: expressed in transfected cells; host or cells: insect Sf9 cells
T1 sequence (P08913 1-465): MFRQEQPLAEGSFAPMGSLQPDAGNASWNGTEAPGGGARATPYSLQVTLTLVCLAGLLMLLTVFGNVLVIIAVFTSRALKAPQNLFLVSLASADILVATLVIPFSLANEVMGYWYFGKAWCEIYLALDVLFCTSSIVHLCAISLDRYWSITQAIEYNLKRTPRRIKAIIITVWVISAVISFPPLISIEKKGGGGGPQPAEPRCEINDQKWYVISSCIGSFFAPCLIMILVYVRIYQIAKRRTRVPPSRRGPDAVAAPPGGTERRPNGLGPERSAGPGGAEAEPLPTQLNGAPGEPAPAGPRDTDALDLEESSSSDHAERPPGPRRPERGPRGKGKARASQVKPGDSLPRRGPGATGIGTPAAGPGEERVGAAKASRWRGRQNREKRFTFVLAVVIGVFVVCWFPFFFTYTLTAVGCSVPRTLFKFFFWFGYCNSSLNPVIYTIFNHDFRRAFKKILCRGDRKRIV
Experimental: (§1) (a) Adrenergic α2A Receptor: • Reference: S. Uhlen et al. J. Pharmacol. Exp. Ther., 271:1558-1565 (1994) • Source: Human recombinant insect Sf9 cells • Ligand: 1 nM [^3H] […] J. Pharmacol., 99:803-809, (1990) • Source: Wistar rat cerebral cortex • Ligand: 2 nM [3H]

Dopamine D1 Receptor = molecular target: T2, Dopamine D1 Receptor (Homo sapiens, UniProt P21728); test: Dopamine D1 receptor radioligand binding; conditions: 10 μM; 1.4 nM [3H] SCH-23390
T2 construct: expressed in transfected cells; host or cells: CHO cells
T2 sequence (P21728 whole entry): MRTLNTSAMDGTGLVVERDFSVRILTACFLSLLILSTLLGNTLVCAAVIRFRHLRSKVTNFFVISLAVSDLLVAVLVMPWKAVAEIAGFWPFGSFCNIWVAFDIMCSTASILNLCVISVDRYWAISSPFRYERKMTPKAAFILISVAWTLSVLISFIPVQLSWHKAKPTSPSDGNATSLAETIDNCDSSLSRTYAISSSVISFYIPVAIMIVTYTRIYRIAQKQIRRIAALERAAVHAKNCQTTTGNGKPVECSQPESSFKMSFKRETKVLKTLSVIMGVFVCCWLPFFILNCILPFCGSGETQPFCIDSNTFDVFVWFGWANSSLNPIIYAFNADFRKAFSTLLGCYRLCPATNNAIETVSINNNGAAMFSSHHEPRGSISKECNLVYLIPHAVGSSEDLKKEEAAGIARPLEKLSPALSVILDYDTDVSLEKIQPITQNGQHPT
Experimental: as §1

Sigma σ1 Receptor = molecular target: T3, Sigma σ1 Receptor (Homo sapiens, UniProt Q99720); test: Sigma σ1 receptor radioligand binding; conditions: 10 μM; 8 nM [3H] Haloperidol
T3 construct: Source: Human jurkat cells; endogenous in cells; host or cells: Jurkat cells
T3 sequence (Q99720 whole entry): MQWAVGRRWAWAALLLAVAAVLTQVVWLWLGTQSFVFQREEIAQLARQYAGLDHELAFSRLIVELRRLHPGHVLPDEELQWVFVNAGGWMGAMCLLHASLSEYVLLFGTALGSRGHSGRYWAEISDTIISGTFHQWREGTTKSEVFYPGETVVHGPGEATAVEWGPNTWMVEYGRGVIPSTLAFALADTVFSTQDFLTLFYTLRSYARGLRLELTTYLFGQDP
Experimental: as §1

SMILES | Percentage Inhibition of Specific Binding, α2A Receptor (Adrenergic α2A Receptor) [%] | Percentage Inhibition of Specific Binding, D1 Receptor (Dopamine D1 Receptor) [%] | Percentage Inhibition of Specific Binding, σ1 Receptor (Sigma σ1 Receptor) [%]
COc1cc2c(cc1OC)[C@H]1C[C@@H](O)[C@@H](CC(C)C)CN1CC2 (single isomer, unassigned) [Isomer C, 3,11b-cis-dihydrotetrabenazine] | 13 | 6 | 59
COc1cc2c(cc1OC)[C@H]1C[C@H](O)[C@@H](CC(C)C)CN1CC2 (single isomer, unassigned) [Isomer B, 3,11b-cis-dihydrotetrabenazine] | 12 | 1 | 82
